Results taken from patent publication US11351168B1 (Celgene CAR LLC, priority 2008, dated 2022).

Experiments:
[1] = system: BTK signaling in Ramos cells; assay: BTK Ramos cellular assay (phosphorylation of BTK substrate PLCγ2); assay type: cell-based, human; conditions: Homo sapiens, 1 hour compound, anti-IgM stimulation, read-out: BTK Inhibition (Ramos cellular)
Description: Compounds I-2, I-4, and I-7 were assayed in Ramos human Burkitt lymphoma cells. Ramos cells were grown in suspension in T225 flasks, spun down, resuspended in 50 ml serum-free media and incubated for 1 hour. Compound was added to Ramos cells in serum free media to a final concentration of 1, 0.1, 0.01, or 0.001 μM. Ramos cells were incubated with compound for 1 hour, washed again and resuspended in 100 ul serum-free media. Cells were then stimulated with 1 μg of goat F(ab′)2 Anti-Human IgM and incubated on ice for 10 minutes to activate B cell receptor signaling pathways. After 10 minutes, the cells were washed once with PBS and then lysed on ice with Invitrogen Cell Extraction buffer. 16 μg total protein from lysates were loaded on gel and blots were probed for phosphorylation of the BTK substrate PLCγ2.

[2] = system: BTK kinase activity (PLCγ2 phosphorylation) in Ramos cells; assay: Washout experiment with Ramos cells; assay type: cell-based, human; conditions: 100 nM compound for 1 hour, then washout
Description: Washout Experiment with Ramos Cells
Ramos cells were serum starved for one hour in RPMI media+1% glutamine at 37° C. After starvation, Ramos cells were treated with 100 nM compound diluted in serum free RPMI media for 1 hour. After compound treatment, the media was removed and cells were washed with compound-free media. Subsequently, Ramos cells were washed every 2 hours and resuspended in fresh compound-free media. Cells were collected at specified timepoints, treated with 1 ug anti-human IgM (Southern Biotech cat #2022-01) for 10 minutes on ice to induce BCR signaling and then washed in PBS. Ramos cells were then lysed in Cell Extraction Buffer (Invitrogen FNN0011) supplemented with Roche complete protease inhibitor tablets (Roche 11697498001) and phosphatase inhibitors (Roche 04 906 837 001) and 18 ug total protein lysate was loaded in each lane. Inhibition of BTK kinase activity was assayed by measuring its substrate (PLCγ2) phosphorylation by western blot with phospho-specific antibodies from Cell Signaling Technologies cat #3871. The results of this experiment with compounds I-2, I-4 and I-7 are depicted in FIGS. 1, 2 and 3.

BTK = BTK (Homo sapiens (Human), UniProt Q06187); assay: Mass spectrometry for BTK (intact protein); assay type: binding; conditions: 1 hr, 10× fold excess of compound
BTK, sequence (Q06187 whole entry): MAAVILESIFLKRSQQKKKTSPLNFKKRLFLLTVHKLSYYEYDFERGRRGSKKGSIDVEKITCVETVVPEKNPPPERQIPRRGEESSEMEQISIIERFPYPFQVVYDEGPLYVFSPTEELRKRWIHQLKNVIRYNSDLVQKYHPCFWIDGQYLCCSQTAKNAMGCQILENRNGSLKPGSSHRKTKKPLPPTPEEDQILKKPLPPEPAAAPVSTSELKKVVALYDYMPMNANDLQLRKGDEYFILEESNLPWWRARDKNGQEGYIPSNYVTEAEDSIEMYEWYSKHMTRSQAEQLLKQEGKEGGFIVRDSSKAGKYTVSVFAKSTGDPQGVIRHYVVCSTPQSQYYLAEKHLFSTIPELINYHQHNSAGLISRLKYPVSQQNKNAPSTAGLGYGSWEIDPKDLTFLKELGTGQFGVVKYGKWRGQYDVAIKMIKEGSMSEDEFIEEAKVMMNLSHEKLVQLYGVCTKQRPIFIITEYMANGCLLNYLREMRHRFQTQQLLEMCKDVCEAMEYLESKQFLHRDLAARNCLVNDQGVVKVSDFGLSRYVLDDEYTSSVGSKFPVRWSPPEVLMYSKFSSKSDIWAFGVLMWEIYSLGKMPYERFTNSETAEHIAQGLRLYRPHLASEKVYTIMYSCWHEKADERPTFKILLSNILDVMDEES
Description: Mass Spectrometry for BTK
Intact BTK was incubated for 1 hr at a 10× fold excess of I-7 to protein. Aliquots (2 μl) of the samples were diluted with 10 μl of 0.1% TFA prior to micro C4 ZipTipping directly onto the MALDI target using Sinapinic acid as the desorption matrix (10 mg/ml in 0.1% TFA:Acetonitrile 20:80).

IC50 [1] [µM] | modification of BTK by mass spectrometry (BTK) | Compound | BTK Inhibition Type [2]
< 0.01 | – | C=CC(=O)Nc1cccc(Nc2nc(Nc3ccc(F)cc3)ncc2F)c1 [Compound I-247, N-(3-(5-fluoro-2-(4-fluorophenylamino)pyrimidin-4-ylamino)phenyl)acrylamide] | irreversible
< 0.01 | – | C#CCOc1cccc(Nc2ncc(C)c(Nc3cccc(NC(=O)C=C)c3)n2)c1 [Compound I-35, N-(3-(5-methyl-2-(3-(prop-2-ynyloxy)phenylamino)pyrimidin-4-ylamino)phenyl) acrylamide] | irreversible
< 0.01 | – | C=CC(=O)Nc1cccc(Nc2nc(Nc3cccc(OC)c3)ncc2C(F)(F)F)c1 [Compound I-242, N-(3-(5-trifluoromethyl-2-(3-methoxyphenylamino)pyrimidin-4-ylamino)phenyl)acrylamide] | irreversible
< 0.01 | – | C=CC(=O)Nc1cccc(Nc2nc(Nc3ccccc3)ncc2C(N)=O)c1 [Compound I-230, 4-(3-acrylamidophenylamino)-2-(phenylamino)pyrimidine-5-carboxamide] | irreversible
– | completely modify | C=CC(=O)Nc1cccc(Nc2nc(Nc3ccc(OCCOC)cc3)ncc2F)c1 [Compound I-182, N-(3-(5-fluoro-2-(4-(2-methoxyethoxy)phenylamino)pyrimidin-4-ylamino)phenyl)acrylamide] | –
< 0.01 | – | C=CC(=O)Nc1cccc(Nc2nc(Nc3ccc(OC)nc3)ncc2F)c1 [Compound I-243, N-(3-(5-fluoro-2-(6-methoxypyridin-3-ylamino)pyrimidin-4-ylamino)phenyl)acrylamide] | irreversible
0.01 to 0.1 | completely modify | C=CC(=O)Nc1cccc(Nc2nc(Nc3cccc(OC(F)(F)F)c3)ncc2F)c1 [Compound I-244, N-(3-(5-fluoro-2-(3-(trifluoromethoxy)phenylamino)pyrimidin-4-ylamino)phenyl)acrylamide] | –
< 0.01 | – | C=CC(=O)Nc1cccc(Nc2nc(Nc3ccc(Cl)c(OCCOC)c3)ncc2F)c1 [Compound I-321, N-(3-(2-(4-chloro-3-(2-methoxyethoxy)phenylamino)-5-fluoropyrimidin-4-ylamino)phenyl)acrylamide] | –
< 0.01 | – | C=CC(=O)Nc1cccc(Nc2nc(Nc3cccc(OCC(C)(C)O)c3)ncc2F)c1 [Compound I-118, N-(3-(5-fluoro-2-(3-(2-hydroxy-2-methylpropoxy)phenylamino)pyrimidin-4-ylamino)phenyl)acrylamide] | –
0.01 to 0.1 | – | C=CC(=O)Nc1cccc(Nc2nc(Nc3cccc(OC)c3)ncc2OC)c1 [Compound I-158, N-(3-(5-methoxy-2-(3-methoxyphenylamino)pyrimidin-4-ylamino)phenyl)acrylamide] | –
< 0.01 | – | C=CC(=O)Nc1cccc(Nc2nc(Nc3cccc(OC)c3)ncc2C(N)=O)c1 [Compound I-210, 4-(3-acrylamidophenylamino)-2-(3-methoxyphenylamino)pyrimidine-5-carboxamide] | –

More lines, now with the values behind:

Compound | IC50 [1] [µM] | modification of BTK by mass spectrometry (BTK) | BTK Inhibition Type [2]
C=CC(=O)Nc1cccc(Oc2nc(Nc3ccccc3)ncc2F)c1 [Compound I-228, N-(3-(5-fluoro-2-(phenylamino)pyrimidin-4-yloxy)phenyl)acrylamide] | < 0.01 | – | irreversible
C=CC(=O)N1CCOc2ccc(Nc3ncc(F)c(Nc4cccc(Cl)c4)n3)cc21 [Compound I-149, 1-(6-(4-(3-chlorophenylamino)-5-fluoropyrimidin-2-ylamino)-2H-benzo[b][1,4]oxazin-4(3H)-yl)prop-2-en-1-one] | 0.01 to 0.1 | completely modify | –
C=C(C#N)C(O)c1cccc(Nc2nc(Nc3ccc(OCCOC)cc3)ncc2F)c1 (stereo not drawn) [Compound I-71, 2-((3-(5-fluoro-2-(4-(2-methoxyethoxy)phenylamino)pyrimidin-4-ylamino)phenyl)(hydroxy)methyl)acrylonitrile] | – | completely modify | –
Cc1cnc(Nc2ccccc2)nc1Nc1cccc(NC(=O)/C=C/CN(C)C)c1 [Compound I-38, (E)-4-(dimethylamino)-N-(3-(5-methyl-2-(phenylamino)pyrimidin-4-ylamino)phenyl)but-2-enamide] | 0.01 to 0.1 | – | reversible
C=CC(=O)N1CCC[C@@H](Nc2nc(Nc3cccc(OC)c3)ncc2F)C1 [Compound I-195, (R)-1-(3-(5-fluoro-2-(3-methoxyphenylamino)pyrimidin-4-ylamino)piperidin-1-yl)prop-2-en-1-one] | 0.01 to 0.1 | completely modify | –
C=CC(=O)N(C)Cc1ccc(Nc2nc(Nc3ccccc3)ncc2C)cc1 [Compound I-219, N-methyl-N-(4-(5-methyl-2-(phenylamino)pyrimidin-4-ylamino)benzyl)acrylamide] | 0.01 to 0.1 | completely modify | –
C=C(C#N)C(O)c1ccc(Nc2nc(Nc3ccccc3)ncc2F)cc1 (stereo not drawn) [Compound I-161, 2-((4-(5-fluoro-2-(phenylamino)pyrimidin-4-ylamino)phenyl)(hydroxy)methyl)acrylonitrile] | – | completely modify | –
C=CC(=O)Nc1cccc(Nc2nc(Nc3ccccc3)ncc2F)c1 [Compound I-28, N-(3-(5-fluoro-2-(phenylamino)pyrimidin-4-ylamino)phenyl)acrylamide] | – | – | irreversible
CC(C)=CC(=O)c1cccc(Nc2nc(Nc3cccc(OCCN(C)C)c3)ncc2F)c1 [Compound I-207] | 0.1 to 1 | completely modify | –
C=CC(=O)N1CCC[C@@H](Nc2nc(Nc3ccc(OC)nc3)ncc2F)C1 [Compound I-202, (R)-1-(3-(5-fluoro-2-(6-methoxypyridin-3-ylamino)pyrimidin-4-ylamino)piperidin-1-yl)prop-2-en-1-one] | 0.1 to 1 | – | –
2-((4-(5-fluoro-2-(3-trifluoromethoxyphenylamino)pyrimidin-4-ylamino)phenyl)(hydroxy)methyl)acrylonitrile [Compound I-163] | – | completely modify | –
C=CC(=O)Nc1cccc(Oc2nc(Nc3ccccc3)ncc2C)c1 [Compound I-248, N-(3-(5-methyl-2-(phenylamino)pyrimidin-4-yloxy)phenyl)acrylamide] | < 0.01 | – | irreversible
C=CC(=O)Nc1cccc(Nc2nc(Nc3ccc(OC4CCC4)nc3)ncc2F)c1 [Compound I-79, N-(3-(2-(6-cyclobutoxypyridin-3-ylamino)-5-fluoropyrimidin-4-ylamino)phenyl)acrylamide] | < 0.01 | – | –
C=CC(=O)Nc1cccc(Oc2nc(Nc3ccc(OC)nc3)ncc2C(=O)NC2CC2)c1 [Compound I-176, 4-(3-acrylamidophenoxy)-2-(6-methoxypyridin-3-ylamino)-pyrimidine-5-carboxylic acid cyclopropylamide] | 0.1 to 1 | – | –
C=CC(=O)N1CCc2ccc(Nc3nc(Nc4ccc(OC)nc4)ncc3F)cc21 [Compound I-166, 1-(6-(5-fluoro-2-(6-methoxypyridin-3-ylamino)pyrimidin-4-ylamino)indolin-1-yl)prop-2-en-1-one] | 0.01 to 0.1 | – | –
C=CC(=O)Nc1cccc(Nc2nc(Nc3ccc4c(c3)N(C)CCO4)ncc2F)c1 [Compound I-126, N-(3-(2-(4-methyl-2,3-dihydrobenzo[1,4]oxazin-6-yl)amino-5-fluoropyrimidin-4-ylamino)phenyl)acrylamide] | 0.01 to 0.1 | – | –
C=CC(=O)Nc1cccc(Nc2nc(Nc3cccc(OCCCn4ccnc4)c3)ncc2F)c1 [Compound I-204, N-(3-(2-(3-(3-(1H-imidazol-1-yl)propoxy)phenylamino)-5-fluoropyrimidin-4-ylamino)phenyl)acrylamide] | < 0.01 | – | –
C=CC(=O)N1CCOc2ccc(Nc3nc(Nc4ccc(OCCOC)cc4)ncc3C(C)=O)cc21 [Compound I-150, 1-(6-{5-Acetyl-2-[4-(2-methoxy-ethoxy)-phenylamino]-pyrimidin-4-ylamino}-2,3-dihydro-benzo[1,4]oxazin-4-yl)-propenone] | 0.01 to 0.1 | – | –
